Laboratory results from patent publication US20230086007A1, “USE OF DENATONIUM BENZOATE AS A SEED TREATMENT FOR CROPS AS BIRD AND/OR INSECT REPELLENT” (KWS SAAT SE & Co. KGaA, priority 2020, published 2023).

Tests used:
[1] = tested on: crows; conditions: wheat seed treatment; cited from earlier work
[2] = tested on: corn seeds; experiment: Phytotoxicity: cold test germination rate (CT) of treated corn seeds; conditions: for ΔCT: vs no Bitrex
Description: In order to evaluate the phytotoxicity of different corn seed treatments, safety tests were conducted. Germination rates of corn seeds treated with various concentrations of denatonium benzoate (Bitrex®) [in g per unit, where 1 unit is 50.000 seeds] were counted after five days at 25° C. Cold test germination rates (CT) were counted after 7 days at 10° C. and 5 days at 25° C. The treatments were compared to untreated seeds.
KF=germination rates counted after 5 days at 25° C. and CT=cold test germination rates counted after 7 days at 10° C. and 5 days at 25° C.

[3] = corn Amavit, chemical no, Bitrex 0.2 g/u
[4] = corn Amavit, chemical no, Bitrex 0.5 g/u
[5] = corn Amavit, chemical no, Bitrex 1.0 g/u
[6] = corn Amavit, chemical no, Bitrex 2.0 g/u
[7] = corn Amavit, chemical no, Bitrex 5.0 g/u
[8] = corn Amavit, with MaximXL, Bitrex 0.2 g/u
[9] = corn Amavit, with MaximXL, Bitrex 0.5 g/u
[10] = corn Amavit, with MaximXL, Bitrex 1.0 g/u
[11] = corn Amavit, with MaximXL, Bitrex 2.0 g/u
[12] = corn Amavit, with MaximXL, Bitrex 5.0 g/u
[13] = corn Amavit, with RedigoM, Bitrex 0.2 g/u
[14] = corn Amavit, with RedigoM, Bitrex 0.5 g/u
[15] = corn Amavit, with RedigoM, Bitrex 1.0 g/u
[16] = corn Amavit, with RedigoM, Bitrex 2.0 g/u
[17] = corn Amavit, with RedigoM, Bitrex 5.0 g/u
[18] = corn KXB6432, chemical no, Bitrex 0.2 g/u
[19] = corn KXB6432, chemical no, Bitrex 0.5 g/u
[20] = corn KXB6432, chemical no, Bitrex 1.0 g/u
[21] = corn KXB6432, chemical no, Bitrex 2.0 g/u
[22] = corn KXB6432, chemical no, Bitrex 5.0 g/u
[23] = corn KXB6432, with MaximXL, Bitrex 0.2 g/u
[24] = corn KXB6432, with MaximXL, Bitrex 0.5 g/u

CC[N+](CC)(CC(=O)Nc1c(C)cccc1C)Cc1ccccc1.O=C([O-])c1ccccc1 [Bitrex, N-Benzyl-2-(2,6-dimethylanilino)-N, N-diethyl-2-oxoethan-1-aminium benzoate]
corvid repellent effect in wheat [1]: only provided a modest improvement
CT cold test germination rate, 7 days at 10° C. and 5 days at 25° C. [2, 3]: 91.5%
CT cold test germination rate, 7 days at 10° C. and 5 days at 25° C. [2, 4]: 89.0%
CT cold test germination rate, 7 days at 10° C. and 5 days at 25° C. [2, 5]: 95.5%
CT cold test germination rate, 7 days at 10° C. and 5 days at 25° C. [2, 6]: 93.0%
CT cold test germination rate, 7 days at 10° C. and 5 days at 25° C. [2, 7]: 96.5%
CT cold test germination rate, 7 days at 10° C. and 5 days at 25° C. [2, 8]: 98.0%
CT cold test germination rate, 7 days at 10° C. and 5 days at 25° C. [2, 9]: 98.0%
CT cold test germination rate, 7 days at 10° C. and 5 days at 25° C. [2, 10]: 97.0%
CT cold test germination rate, 7 days at 10° C. and 5 days at 25° C. [2, 11]: 99.0%
CT cold test germination rate, 7 days at 10° C. and 5 days at 25° C. [2, 12]: 99.0%
CT cold test germination rate, 7 days at 10° C. and 5 days at 25° C. [2, 13]: 97.5%
CT cold test germination rate, 7 days at 10° C. and 5 days at 25° C. [2, 14]: 99.0%
CT cold test germination rate, 7 days at 10° C. and 5 days at 25° C. [2, 15]: 99.0%
CT cold test germination rate, 7 days at 10° C. and 5 days at 25° C. [2, 16]: 95.5%
CT cold test germination rate, 7 days at 10° C. and 5 days at 25° C. [2, 17]: 96.5%
CT cold test germination rate, 7 days at 10° C. and 5 days at 25° C. [2, 18]: 98.0%
CT cold test germination rate, 7 days at 10° C. and 5 days at 25° C. [2, 19]: 97.5%
CT cold test germination rate, 7 days at 10° C. and 5 days at 25° C. [2, 20]: 97.0%
CT cold test germination rate, 7 days at 10° C. and 5 days at 25° C. [2, 21]: 90.5%
CT cold test germination rate, 7 days at 10° C. and 5 days at 25° C. [2, 22]: 90.5%
CT cold test germination rate, 7 days at 10° C. and 5 days at 25° C. [2, 23]: 100.0%
CT cold test germination rate, 7 days at 10° C. and 5 days at 25° C. [2, 24]: 99.5%
CT cold test germination rate, 7 days at 10° C. and 5 days at 25° C. ([2]; corn KXB6432, with MaximXL, Bitrex 1.0 g/u): 98.0%
CT cold test germination rate, 7 days at 10° C. and 5 days at 25° C. ([2]; corn KXB6432, with MaximXL, Bitrex 2.0 g/u): 96.5%
CT cold test germination rate, 7 days at 10° C. and 5 days at 25° C. ([2]; corn KXB6432, with MaximXL, Bitrex 5.0 g/u): 99.0%
CT cold test germination rate, 7 days at 10° C. and 5 days at 25° C. ([2]; corn KXB6432, with RedigoM, Bitrex 0.2 g/u): 97.0%
CT cold test germination rate, 7 days at 10° C. and 5 days at 25° C. ([2]; corn KXB6432, with RedigoM, Bitrex 0.5 g/u): 96.5%
CT cold test germination rate, 7 days at 10° C. and 5 days at 25° C. ([2]; corn KXB6432, with RedigoM, Bitrex 1.0 g/u): 99.5%
CT cold test germination rate, 7 days at 10° C. and 5 days at 25° C. ([2]; corn KXB6432, with RedigoM, Bitrex 2.0 g/u): 98.5%
CT cold test germination rate, 7 days at 10° C. and 5 days at 25° C. ([2]; corn KXB6432, with RedigoM, Bitrex 5.0 g/u): 96.5%
ΔCT [2, 3]: 6.0%
ΔCT [2, 4]: 3.5%
ΔCT [2, 5]: 10.0%
ΔCT [2, 6]: 7.5%
ΔCT [2, 7]: 11.0%
ΔCT [2, 8]: −2.0%
ΔCT [2, 9]: −2.0%
ΔCT [2, 10]: −3.0%
ΔCT [2, 11]: −1.0%
ΔCT [2, 12]: −1.0%
ΔCT [2, 13]: 0.5%
ΔCT [2, 14]: 2.0%
ΔCT [2, 15]: 2.0%
ΔCT [2, 16]: −1.5%
ΔCT [2, 17]: −0.5%
ΔCT [2, 18]: 5.5%
ΔCT [2, 19]: 5.0%
ΔCT [2, 20]: 4.5%
ΔCT [2, 21]: −2.0%
ΔCT [2, 22]: −2.0%
ΔCT [2, 23]: 1.0%
ΔCT [2, 24]: 0.5%
